Source: patent US11326207B2, “Sequencing using non-natural nucleotides” (Ultima Genomics, Inc., priority 2017, dated 2022)
Where two headings read alike, the source gives them in different places.

How the values were obtained:
Bst 2.0 DNA polymerase = test: Homopolymer assays of nucleotide analogs (Example 10); assay type: biochemical
Procedure: A homopolymer assay was performed to investigate the effectiveness of E-dCTP and P-dUTP as nucleotide analogs of dCTP. 50 μl solutions containing a template nucleic acid molecule and primer and Bst 2.0 DNA polymerase are placed in a microplate reader and the fluorescence of the solution is measured in kinetic mode. A fluorescein attached to an oligonucleotide (indicated with a * in FIG. 7) was quenched in the substrate due to the proximity of complementary G bases. Addition of dCTP and/or dCTP analogs causes extension of the 3′ end of the primer, formation of double-stranded DNA, and unquenching of the fluorescein. The fluorescence increases with the addition of multiple nucleotides.
Additional homopolymer assays were performed according to the procedure outlined in Example 8 using different nucleotides and nucleotide analogs.
To test for dUTP or TTP incorporation, oligo 332 was used as a template and oligo 221L was used as a primer. To test for dCTP incorporation, oligo 333 was used as a template and oligo 221L was used as a primer. To test for dGTP incorporation, oligo 334 was used as a template and oligo 221L was used as a primer. To test for dATP incorporation, hairpin oligo 221 was used as both a primer and template.

Bst DNA polymerase v.2.0 = test: Flow cytometry assay: tolerance of dye-labeled dUTP* compared to dUTP analogs (Example 7); assay type: biochemical; settings: for Tolerance: tolerance of dUTP* compared to the named dUTP^0
Procedure: A solution of biotinylated template (2 microliters (μL) of 100 μM) and dye-labeled primer (4 μL of 100 μM) were combined in annealing buffer (40 μL; Tris (10 millimolar (mM)), EDTA (1 mM), NaCl (100 mM)). The resulting solution was heated to 95° C. and allowed to slowly cool to room temperature. A portion of this solution (8 μL) was mixed with streptavidin-labeled magnetic beads (4 μL of Invitrogen Dynabeads™ MyOne™ Streptavidin C1, 10 milligrams/milliliter (mg/mL); washed and eluant removed) and 2× bead wash buffer (8 μL; 10 mM Tris, pH 7.5, 1 mM EDTA, 2 M NaCl, 0.01% Triton X-100). After washing with TET solution (10 mM Tris, 1 mM EDTA, 0.05% Triton X-100) the beads were treated with Bst DNA polymerase v.2.0 (8 μL of 8 units (U)/μL; New England Biolabs) for five minutes. The excess enzyme was removed by washing with TET and the beads were suspended in 1×DNA polymerase buffer solution (20 mM Tris, pH 8, 10 mM NaCl, 2 mM MgCl2, 0.01% Triton X-100). The sequence of the biotinylated template was /52 Bio//iSp18/[…] […] (SEQ ID NO: 12), where “5” is indicative of the 5′-end of the oligo, 2-Bio indicates dual biotin, and iSP18 indicates a PEG spacer. […] […] (SEQ ID NO: 13), where “5” indicates the 5′-end of the oligo and JOE indicates a fluorescent dye attached to the oligo.
Next, a portion of the suspended magnetic beads (10 μL) were removed and placed in a PCR tube. A solution of nucleotides (10 μL) was added to the tube and the tube incubated for 40 seconds (s) at 50° C. The enzyme reaction was stopped with the addition of 5 μL of 50 mM EDTA. The beads were washed with 2×100 μL TET and resuspended in 20 μL TET. A portion of the bead solution (1 μL) was added to TE (200 μL) and the beads examined for red fluorescence on a flow cytometer (BD Accuri™, APC channel). The eluant of the remaining beads was removed and 40 μL of 95:5 formamide:10 mM EDTA was added to the beads. A portion of the formamide solution (1 μL) was added to 40 μL 95:5 formamide EDTA. The solutions were examined by capillary electrophoresis (CE) on an ABI 3730 instrument and the peaks identified and quantitated by peak height. The experimental protocol is summarized schematically in FIG. 2.
Tolerance was measured at two molar fractions, […] and 0.05, for each of the four dUTP analogs.

hairpin oligo = test: Kinetic assay using hairpin oligos (Example 7); assay type: biochemical
Procedure: A kinetic assay using hairpin oligos was also performed to determine the rate of incorporate of an unnatural nucleotide and a natural nucleotide following the unnatural nucleotide. […] Incorporation of a T or U analog unquenched a fluorescein in the hairpin oligo. Following incorporation of the T or U analog, a mixture of C and A was added, which further unquenched the dye.

DNA polymerase = settings: for peak height (red fluorescence on the gel): dUTP* only (Fr = 1.0) or dUTP*/named dUTP^0
Procedure: A gel assay was also performed to examine context-dependent incorporation. […] The primers had different lengths poly-T tails to enable separation on a polyacrylamide gel. […] Excess nucleotides and nucleotide analogs were washed away and the sample was loaded onto a gel.
The red fluorescence on the gel was analyzed with ImageJ. The peak heights for the extension reactions for each primer with Fr=1.0 was measured. […] The ratios of the peak heights for each pair were calculated (“norm.”). […] The metric in this experiment was context, as defined as: C=(Maximum signal−minimum signal)/(average signal).

[1] = Natural Nucleotide G (dGTP = 1), template oligo 334, primer 221L
[2] = Natural Nucleotide T (TTP = 1), template oligo 332, primer 221L
[3] = Natural Nucleotide A (dATP = 1), hairpin oligo 221
[4] = Natural Nucleotide C (dCTP = 1), template oligo 333, primer 221L

Nc1nc2c(ncn2[C@H]2C[C@H](O)[C@@H](COP(=O)(O)OP(=O)(O)OP(=O)(O)O)O2)c(=O)[nH]1 [dGTP, deoxyguanosine triphosphate, reference compound]
Relative Rate in Homopolymer Assay (Bst 2.0 DNA polymerase; [1]): 1

O=c1[nH]c(=O)n([C@H]2C[C@H](O)[C@@H](COP(=O)(O)OP(=O)(O)OP(=O)(O)O)O2)cc1Br [5-Bromo-dUTP, 5-bromo-2′-deoxyuridine 5′triphosphate]
Relative Rate in Homopolymer Assay (Bst 2.0 DNA polymerase; [2]): >1

O=c1[nH]c(=O)n([C@H]2C[C@H](O)[C@@H](COP(=O)(O)OP(=O)(O)OP(=O)(O)O)O2)cc1F [5-Fluoro-dUTP, 5-fluoro-2′-deoxyuridine 5′triphosphate]
Relative Rate in Homopolymer Assay (Bst 2.0 DNA polymerase; [2]): <1

iodo-2′-deoxyguanosine-5′-triphosphate [Iodo-dGTP]
Relative Rate in Homopolymer Assay (Bst 2.0 DNA polymerase; [1]): >1

Nc1ncnc2c1nc(Br)n2[C@H]1C[C@H](O)[C@@H](COP(=O)(O)OP(=O)(O)OP(=O)(O)O)O1 [Bromo-dATP, bromo-deoxyadenosine triphosphate]
Relative Rate in Homopolymer Assay (Bst 2.0 DNA polymerase; [3]): >1

Nc1ncnc2c1ccn2[C@H]1C[C@H](O)[C@@H](COP(=O)(O)OP(=O)(O)OP(=O)(O)O)O1 [7-deaza-dATP, 7-deaza-2′-deoxyadenosine-5′-triphosphate]
Relative Rate in Homopolymer Assay (Bst 2.0 DNA polymerase; [3]): <1

CC#Cc1cn([C@H]2C[C@H](O)[C@@H](COP(=O)(O)OP(=O)(O)OP(=O)(O)O)O2)c(=O)[nH]c1=O [P-dUTP, 5-propynyl-2′-deoxyuridine 5′triphosphate]
performance as a substrate compared with TTP (in words) (Bst DNA polymerase v.2.0; from tolerance for the labeled nucleotide at both molar fractions): outperforms TTP as a substrate
Apparent fraction (Bst DNA polymerase v.2.0; molar fraction dUTP* 0.05): 0.032
Red signal (Bst DNA polymerase v.2.0; molar fraction dUTP* 0.05, rest the named dUTP^0): 1,600
Apparent fraction (Bst DNA polymerase v.2.0; molar fraction dUTP* 0.5): 0.32
Red signal (Bst DNA polymerase v.2.0; molar fraction dUTP* 0.5, rest the named dUTP^0): 16,000
Tolerance (Bst DNA polymerase v.2.0; molar fraction dUTP* 0.05): 0.6
Tolerance (Bst DNA polymerase v.2.0; molar fraction dUTP* 0.5): 0.6
incorporation of dCTP and dATP after the dUTP analog (hairpin oligo; mixture of C and A added after T or U analog): rapid
initial incorporation of dUTP analog (hairpin oligo; unquenching of fluorescein in hairpin oligo): rapid
Relative Rate in Homopolymer Assay (Bst 2.0 DNA polymerase; [2]): >1
Norm. (ratio of peak height dUTP*/dUTP^0 to Fr=1.0) (DNA polymerase; Peak 1): 1.3
peak height (red fluorescence on the gel) (DNA polymerase; Peak 1 (primer)): 55
Norm. (ratio of peak height dUTP*/dUTP^0 to Fr=1.0) (DNA polymerase; Peak 2): 1.4
peak height (red fluorescence on the gel) (DNA polymerase; Peak 2 (primer)): 54
Norm. (ratio of peak height dUTP*/dUTP^0 to Fr=1.0) (DNA polymerase; Peak 3): 1.0
peak height (red fluorescence on the gel) (DNA polymerase; Peak 3 (primer)): 27
Norm. (ratio of peak height dUTP*/dUTP^0 to Fr=1.0) (DNA polymerase; Peak 4): 1.1
peak height (red fluorescence on the gel) (DNA polymerase; Peak 4 (primer)): 36
Norm. (ratio of peak height dUTP*/dUTP^0 to Fr=1.0) (DNA polymerase; Peak 5): 1.4
peak height (red fluorescence on the gel) (DNA polymerase; Peak 5 (primer)): 32
context C=(Maximum signal−minimum signal)/(average signal) (DNA polymerase; five primers, gel assay with dUTP*): 0.32

Cc1cn([C@H]2C[C@H](O)[C@@H](COP(=O)(O)OP(=O)(O)OP(=O)(O)O)O2)c(=O)nc1N [5-Methyl-dCTP, 5-methyl-2′-deoxycytidine 5′triphosphate]
Relative Rate in Homopolymer Assay (Bst 2.0 DNA polymerase; [4]): >1

Nc1nc(=O)n([C@H]2C[C@H](O)[C@@H](COP(=O)(O)OP(=O)(O)OP(=O)(O)O)O2)cc1CO [5-Hydroxymethyl-dCTP, 5-ydroxymethyl-2′-deoxycytidine 5′triphosphate]
Relative Rate in Homopolymer Assay (Bst 2.0 DNA polymerase; [4]): <<1

Nc1nc2c(ccn2[C@H]2C[C@H](O)[C@@H](COP(=O)(O)OP(=O)(O)OP(=O)(O)O)O2)c(=O)[nH]1 [7-deaza-dGTP, 7-deaza-2′-deoxyguanosine-5′-triphosphate]
Relative Rate in Homopolymer Assay (Bst 2.0 DNA polymerase; [1]): <1

Nc1ncnc2c1ncn2[C@H]1C[C@H](O)[C@@H](COP(=O)(O)OP(=O)(O)OP(=O)(O)O)O1 [dATP, deoxyadenosine triphosphate, reference compound]
Relative Rate in Homopolymer Assay (Bst 2.0 DNA polymerase; [3]): 1

C#CCNc1cn([C@H]2C[C@H](O)[C@@H](COP(=O)(O)OP(=O)(O)OP(=O)(O)O)O2)c(=O)[nH]c1=O [5-Propargylamino-dUTP, 5-proparylamino-2′-deoxyuridine 5′triphosphate]
Relative Rate in Homopolymer Assay (Bst 2.0 DNA polymerase; [2]): <<1

O=c1[nH]c(=O)n([C@H]2C[C@H](O)[C@@H](COP(=O)(O)OP(=O)(O)OP(=O)(O)O)O2)cc1I [5-Iodo-dUTP, 5-iodo-2′-deoxyuridine 5′triphosphate]
Relative Rate in Homopolymer Assay (Bst 2.0 DNA polymerase; [2]): >1

Nc1nc(=O)n([C@H]2C[C@H](O)[C@@H](COP(=O)(O)OP(=O)(O)OP(=O)(O)O)O2)cc1O [5-Hydroxy-dCTP, 5-hydroxy-2′-deoxycytidine 5′triphosphate]
Relative Rate in Homopolymer Assay (Bst 2.0 DNA polymerase; [4]): <<1

Nc1ncnc2c1c(I)cn2[C@H]1C[C@H](O)[C@@H](COP(=O)(O)OP(=O)(O)OP(=O)(O)O)O1 [7-Iodo-7-deaza-dATP, 7-deaza-7-iodo-2′-deoxyadenosine-5′-triphosphate]
Relative Rate in Homopolymer Assay (Bst 2.0 DNA polymerase; [3]): >1

Nc1nc(=O)n([C@H]2C[C@H](O)[C@@H](COP(=O)(O)OP(=O)(O)OP(=O)(O)O)O2)cc1C=O [5-formyl-dCTP, 5-formyl-2′-deoxycytidine 5′triphosphate]
Relative Rate in Homopolymer Assay (Bst 2.0 DNA polymerase; [4]): <<1

Nc1nc(=O)n([C@H]2C[C@H](O)[C@@H](COP(=O)(O)OP(=O)(O)OP(=O)(O)O)O2)cc1Br [5-Bromo-dCTP, 5-bromo-2′-deoxycytidine 5′triphosphate]
Relative Rate in Homopolymer Assay (Bst 2.0 DNA polymerase; [4]): >1
